Reference: patent publication US20120157401A1, “METHODS FOR TREATING NEUROFIBROMATOSIS” (PTC Therapeutics, Inc., priority 2009, published 2012)
Entries after “also recorded” stand apart in the source; their conditions may differ. Read-outs that look alike come from different tables or passages of the source. Marks after values point to notes of the source that are not given here.

How the values were obtained:
MDA MB 468 xenografts = test: Tumor perfusion by DCE-MRI in MDA-MB-468 xenografts; type: in vivo, athymic nude mice; settings: 10 mg/kg oral QD
From the text: Experimental Design. Dynamic contrast-enhanced magnetic resonance imaging can be used preclinically and clinically to evaluate the anatomy of soft tissues, including the identification and accurate measurement of tumor volumes. In addition, evaluation of the intratumoral pharmacokinetics of contrast agents containing gadolinium can be used to measure vascular permeability characteristics. Coupling gadopentetate dimeglumine gadolinium to a […] like bovine serum albumin can reveal information about the necrotic (non-perfused) and non-necrotic (perfused) tumor volumes, and the percentage of vascular blood volume relative to the perfused tumor volume (known as the fractional blood volume [fBV]). Use of a […] tracer, gadopentetate dimeglumine, can reveal information regarding the volume transfer coefficient (K^trans), a variable that represents a combination of vascular permeability, vascular surface area, and blood flow.
Before each DCE-MRI scan, mice were injected intravenously with gadolinium-containing contrast dyes (bovine serum albumin-gadopentetate dimeglumine conjugate at ˜0.03 mmol/kg followed by gadopentetate dimeglumine at ˜0.2 mmol/kg). Baseline DCE-MRI measurements were taken on Day −1, test Compounds were administered on Day 0 through Day 5, and additional DCE-MRI measurements were taken on Days 1, 3, and 5. Image analyses were conducted with customized software. Total tumor volumes were measured by semi-automatically segmenting a region of interest around an anatomical image of the tumor. Tumor volumes of necrotic and non-necrotic tissues were measured by applying the same semi-automated segmentation process to a contrast dyed image. fBV and K^trans were computed using a standard Kety PK model.

physiological VEGF-A = test: Phase 1 multiple-dose study: plasma and serum physiological VEGF-A concentrations; type: in vivo, human; settings: healthy volunteers, all doses tested
From the text: Plasma VEGF Concentrations: Plasma and serum VEGF concentrations and concentration changes from baseline were presented descriptively.

[1] = ECG and blood pressure assessments in 7-day and 28-day GLP toxicity studies
[2] = tested on: SKNEP orthotopic xenografts; test: Orthotopic SKNEP Ewing sarcoma tumor model (kidney capsule): tumor weight; type: in vivo, athymic nude mice; settings: 5 weeks of treatment
From the text: Experimental Design. In orthotopic tumor models, human tumor cells are implanted into the mouse in an organ that corresponds to the location from which the tumors arise. Such models may provide a better predictor of clinical efficacy than injection of tumors into the flanks of nude mice. See Hoffman, Invest. New Drugs 1999, 17(4):343-59. SY5Y neuroblastoma or SKNEP Ewing sarcoma tumor cells (1×10^6 cells/mouse) were implanted into the kidney capsule of female athymic nude mice according to published methods. See Huang et al., Proc. Natl. Acad. Sci. USA 2003, 100(13):7785-90. One week after implantation of each type of tumor, mice were divided into 2 groups and were administered a test Compound as shown in Table 21.
After 5 weeks of treatment, the mice were sacrificed, and the weights of the tumors were assessed.

CYP1A2 = target: T1, CYP1A2 (Homo sapiens, UniProt P05177); test: CYP inhibition: CYP1A2; type: in vitro ADME; settings: human hepatic microsomes or recombinant isoenzymes
T1 construct: host or cells: human hepatic microsomes or recombinant isoenzyme (not distinguished)
From the text: It is possible that in certain clinical trial subjects, such agents may need to be adjusted for dosing or replaced by alternative agents that are not metabolized by CYP2D6, particularly when such agents may have a low therapeutic index.

SY5Y xenografts = test: SY5Y neuroblastoma subcutaneous xenograft: tumor growth; type: in vivo
Description: Experimental Design. SY5Y cells are derived from a human neuroblastoma, a childhood tumor arising in neural crest cells. SY5Y cells (1×10^7 cells/mouse) were implanted subcutaneously in male athymic nude mice.
Tumor size was measured by calipers at periodic intervals. When the average tumor size in a group exceeded 2000 mm^3, the mice in the group were sacrificed and excised tumors were assayed for intratumoral VEGF concentration as described in Section 9.1.1.1.

HT1080 cells = test: HT1080 spheroid cell viability and mobility (migration after re-plating); type: cell-based, human
Description: Experimental Design. […] Pictures were then taken 48 hours to assess the migration and proliferation of the cells across the well's surface.

[3] = 7-day oral toxicity study in rats; type: in vivo
Description: A battery of genotoxicity studies was also performed. […] The L23 vehicle was used.
Maximal exposures occurred at a dose of 120 mg/kg/day.

[4] = Phase 1 multiple-dose study in healthy volunteers: pharmacokinetics (Table 28); type: in vivo, human; settings: for concentration at 24 h / Tmax: human, plasma, oral; for concentration at 24 h: read-out: C24 h
Description: Methods. The trial was a Phase 1, randomized, escalating multiple dose, single center study conducted in 2 stages.
Capsules contained 2 mg or 20 mg of active substance.
Capsules contained 20 mg or 25 mg of active substance.
Noncompartmental methods were used to compute Tmax, Cmax, and AUC. Dose proportionality and sex effect were evaluated using ANOVA on log transformed PK parameters using dose, sex, and dose by sex as fixed factors.

[5] = 50 mg/kg QD, 5 days per week (Table 18)
[6] = Stage 1, 0.3 mg/kg BID, Day 1, mean
[7] = Stage 1, 0.3 mg/kg BID, Day 7, mean
[8] = Stage 1, 0.6 mg/kg BID, Day 1, mean
[9] = Stage 1, 0.6 mg/kg BID, Day 7, mean
[10] = healthy volunteers, all dose levels

T1 sequence (P05177 whole entry): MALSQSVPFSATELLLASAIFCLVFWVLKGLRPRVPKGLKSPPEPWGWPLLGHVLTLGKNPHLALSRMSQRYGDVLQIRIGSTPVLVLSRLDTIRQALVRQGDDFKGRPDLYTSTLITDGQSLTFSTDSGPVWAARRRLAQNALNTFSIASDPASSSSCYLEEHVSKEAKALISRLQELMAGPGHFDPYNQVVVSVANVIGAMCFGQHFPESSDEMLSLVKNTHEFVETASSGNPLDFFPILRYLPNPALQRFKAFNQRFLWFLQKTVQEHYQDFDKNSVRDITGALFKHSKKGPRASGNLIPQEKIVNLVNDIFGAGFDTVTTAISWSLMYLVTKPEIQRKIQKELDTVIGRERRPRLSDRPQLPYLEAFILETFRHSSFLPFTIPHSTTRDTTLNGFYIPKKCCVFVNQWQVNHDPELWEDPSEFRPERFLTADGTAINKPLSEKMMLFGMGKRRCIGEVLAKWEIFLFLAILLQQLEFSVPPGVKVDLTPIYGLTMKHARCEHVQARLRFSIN

Structure (SMILES): COc1ccc(C2c3[nH]c4ccc(Cl)cc4c3CCN2C(=O)Oc2ccc(Cl)cc2)cc1 (racemic) [Compound #10]
- Change in mean tumor fBV in non-necrotic tissue (MDA MB 468 xenografts; Day 1 to Day 5): declined after Day 3
- Change in mean K^trans in non-necrotic tissue (MDA MB 468 xenografts; Day −1 to Day 5): decreased
- Change in mean necrotic tumor volume (MDA MB 468 xenografts; Day −1 to Day 5): rapidly increased
- Change in mean non-necrotic tumor volume (MDA MB 468 xenografts; Day −1 to Day 5): decreased
- Change in mean total tumor volume (MDA MB 468 xenografts; Day −1 to Day 5): little mean change
- Effect on plasma or serum physiological VEGF-A concentrations (physiological VEGF-A): no clear dose dependent effects; also recorded: No significant alterations
- QTc values vs controls ([1]; males, 60 mg/kg/day, 28-day study): comparable to controls
- Increase in mean uncorrected QT value vs controls ([1]; males, 60 mg/kg/day, end of 28-day dosing): 7%
- Toxicological effects on ECG or blood pressure ([1]; through 120 mg/kg/day for 7-days and through 60 mg/kg/day for 28-days): did not have any toxicological effects
- Growth of orthotopic SKNEP tumors (tumor weight) [2]: completely prevented growth
- Inhibition of CYP1A2 (CYP1A2): No meaningful inhibition
- Mean % Inhibition of Tumor Size vs Vehicle at Day 17 (SY5Y xenografts; [5]): 73* %
- Median Time to Tumor Size ≧1000 mm^3 (SY5Y xenografts; [5]): 35 days
- Toxicity on observing the animals (SY5Y xenografts; SY5Y xenograft mice): no evidence of toxicity
- Proliferative and migratory capacity after three-week exposure, re-plated in the absence of compound (HT1080 cells; 50 nM for 3 weeks): does not reduce either the proliferative or the migratory capacity
- Migration of cells out of control spheroids re-plated in the presence of compound (HT1080 cells; 50 nM, 48 hours): blocked in their ability to migrate out of the spheroid
- Dose of maximal exposures ([3]; Sprague Dawley, rat, in vivo, po, 7 days): 120 mg/kg/day
- NOAEL for 7-days ([3]; female rats): 120 mg/kg/day
- NOAEL for 7-days ([3]; male rats): 40 mg/kg/day
- Mean prothrombin time (PT) and activated partial thromboplastin time (aPTT) ([3]; rat, in vivo, 120 mg/kg/day): increases
- AUC0-24 [4, 6]: 4310 ng·h/mL
- Cmax (after PM dose) [4, 6]: 480 ng/mL
- Dose-normalized AUC0-24 [4, 6]: 7.2 µg·h/mL/mg/kg
- Dose-normalized Cmax [4, 6]: 0.79 µg/mL/mg/kg
- Tmax (after PM dose) [4, 6]: 3.16 h
- AUC0-24 [4, 7]: 8440 ng·h/mL
- Cmax (after PM dose) [4, 7]: 590 ng/mL
- Dose-normalized AUC0-24 [4, 7]: 14.1 µg·h/mL/mg/kg
- Dose-normalized Cmax [4, 7]: 0.99 µg/mL/mg/kg
- AUC0-24 [4, 8]: 10100 ng·h/mL
- Cmax (after PM dose) [4, 8]: 970 ng/mL
- Dose-normalized AUC0-24 [4, 8]: 8.4 µg·h/mL/mg/kg
- Dose-normalized Cmax [4, 8]: 0.81 µg/mL/mg/kg
- Tmax (after PM dose) [4, 8]: 3.17 h
- AUC0-24 [4, 9]: 18600 ng·h/mL
- Cmax (after PM dose) [4, 9]: 1160 ng/mL
- Dose-normalized AUC0-24 [4, 9]: 15.5 µg·h/mL/mg/kg
- Dose-normalized Cmax [4, 9]: 0.97 µg/mL/mg/kg
- Dose-normalized AUC0-24 ([4]; Stage 1, […] BID, Day 1, mean): 7.5 µg·h/mL/mg/kg
- Dose-normalized Cmax ([4]; Stage 1, […] BID, Day 1, mean): 0.82 µg/mL/mg/kg
- Cmax (after PM dose) ([4]; Stage 1, […] BID, Day 7, mean): 2470 ng/mL
- Dose-normalized AUC0-24 ([4]; Stage 1, […] BID, Day 7, mean): 13.7 µg·h/mL/mg/kg
- Dose-normalized Cmax ([4]; Stage 1, […] BID, Day 7, mean): 1.03 µg/mL/mg/kg
- Dose-normalized AUC0-24 ([4]; Stage 2, […] TID, Day 1, mean): 7.7 µg·h/mL/mg/kg
- Dose-normalized Cmax ([4]; Stage 2, […] TID, Day 1, mean): 0.51 µg/mL/mg/kg
- Tmax (after PM dose) ([4]; Stage 2, […] TID, Day 1, mean): 2.50 h
- Cmax (after PM dose) ([4]; Stage 2, […] TID, Day 7, mean): 4650 ng/mL
- Dose-normalized AUC0-24 ([4]; Stage 2, […] TID, Day 7, mean): 16.4 µg·h/mL/mg/kg
- Dose-normalized Cmax ([4]; Stage 2, […] TID, Day 7, mean): 0.98 µg/mL/mg/kg
- concentration at 24 h ([4]; both sexes, 0.3 mg/kg, Stage 1, 0.3 mg/kg BID, Day 1, mean): 94 ng/mL
- concentration at 24 h ([4]; both sexes, 0.3 mg/kg, Stage 1, 0.3 mg/kg BID, Day 7, mean): 210 ng/mL
- concentration at 24 h ([4]; both sexes, 0.6 mg/kg, Stage 1, 0.6 mg/kg BID, Day 1, mean): 260 ng/mL
- concentration at 24 h ([4]; both sexes, 0.6 mg/kg, Stage 1, 0.6 mg/kg BID, Day 7, mean): 540 ng/mL
- Tmax ([4]; both sexes, healthy volunteers, Stage 1 and Stage 2, read-out: Mean Tmax): ~3 h
- Tmax ([4]; both, Stage 1, 1.2 mg/kg BID, Day 1, mean, read-out: Tmax (after PM dose)): 3 h
- Oral bioavailability ([4]; healthy volunteers): orally bioavailable
- Differences in Cmax or AUC0-24 between males and females ([4]; healthy volunteers, ANOVA): no significant differences
- Accumulation (Day 1 to Day 7) when dosed continuously [4, 10]: ~2 fold
- Target trough plasma concentration (~0.1 to […]) [4, 10]: achieved and maintained
- Lag time until appearance in plasma ([4]; healthy volunteers, oral capsules): ~30 min
